Measurements from publication PMC10303012, “Volatile Short-Chain Aliphatic Aldehydes Act as Taste Modulators through the Orally Expressed Calcium-Sensing Receptor CaSR” (Molecules, 2023).

Assays:
Type in all cases: cell-based
[1] = target: T1, calcium-sensing receptor CaSR (Homo sapiens, UniProt P41180); test: calcium mobilization assay in PEAKrapid cells transiently expressing human CaSR, with mock control
T1 sequence (P41180 20-1078): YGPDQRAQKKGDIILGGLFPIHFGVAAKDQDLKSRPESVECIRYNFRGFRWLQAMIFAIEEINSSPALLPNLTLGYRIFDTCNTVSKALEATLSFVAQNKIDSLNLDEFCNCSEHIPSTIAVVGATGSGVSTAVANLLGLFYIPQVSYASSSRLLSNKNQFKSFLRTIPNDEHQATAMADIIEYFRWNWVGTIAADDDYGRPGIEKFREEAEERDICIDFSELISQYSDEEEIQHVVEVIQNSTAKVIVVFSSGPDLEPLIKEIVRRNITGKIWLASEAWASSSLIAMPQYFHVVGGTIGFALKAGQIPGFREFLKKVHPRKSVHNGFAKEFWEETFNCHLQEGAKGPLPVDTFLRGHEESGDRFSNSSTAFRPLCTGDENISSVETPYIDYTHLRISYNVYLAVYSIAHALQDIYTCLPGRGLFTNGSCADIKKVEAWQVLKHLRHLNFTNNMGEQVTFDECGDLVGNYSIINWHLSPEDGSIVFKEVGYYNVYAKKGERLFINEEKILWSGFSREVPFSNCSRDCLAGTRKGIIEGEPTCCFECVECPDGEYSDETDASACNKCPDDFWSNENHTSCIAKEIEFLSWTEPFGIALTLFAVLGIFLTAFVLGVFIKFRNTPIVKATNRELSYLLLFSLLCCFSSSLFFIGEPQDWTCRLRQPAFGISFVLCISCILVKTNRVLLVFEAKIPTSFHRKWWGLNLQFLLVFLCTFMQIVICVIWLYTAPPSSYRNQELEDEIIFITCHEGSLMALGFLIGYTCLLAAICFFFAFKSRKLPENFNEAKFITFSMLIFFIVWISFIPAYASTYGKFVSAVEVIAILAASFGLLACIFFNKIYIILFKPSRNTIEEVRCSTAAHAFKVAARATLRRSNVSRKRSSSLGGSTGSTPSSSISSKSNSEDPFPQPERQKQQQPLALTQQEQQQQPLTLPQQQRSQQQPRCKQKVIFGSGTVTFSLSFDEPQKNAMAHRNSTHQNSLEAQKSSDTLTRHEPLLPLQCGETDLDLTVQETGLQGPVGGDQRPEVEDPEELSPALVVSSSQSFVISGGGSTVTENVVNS

[2] = target: T1, calcium-sensing receptor CaSR; test: calcium mobilization assay in PEAKrapid cells transiently expressing human CaSR; potentiation of CaCl2 response at […]
[3] = target: T1, calcium-sensing receptor CaSR; test: calcium mobilization assay in PEAKrapid cells transiently expressing human CaSR, with mock control; remark: listed apart in the source

SMILES | calcium mobilization assay in PEAKrapid cells transiently expressing human CaSR, [1] | also measured
CCCC=O [butanal] | CaSR was activated by propionaldehyde (A,I), butanal (B,I) | –
CSCCC=O [MTN, methional] | – | calcium mobilization assay in PEAKrapid cells transiently expressing human CaSR, [2]: only methional activated CaSR, while neither of the methional analogues tested activated CaSR
CCC=O [propionaldehyde] | CaSR was activated by propionaldehyde (A,I) | –
CC(C)CC=O [IVAH, isovaleraldehyde] | – | EC50 [3]: 681 µM
CCC(C)C=O (centres unmarked) [2-methylbutylaldehyde] | CaSR was activated by propionaldehyde (A,I), butanal (B,I), isobutylaldehyde (C,I), 2-methylbutylaldehyde (D,I) | –
CCCCCC=O [hexanal] | 2-methylbutylaldehyde (D,I), pentanal (E,I), hexanal (F,I) | –
CCCCC=O [pentanal] | 2-methylbutylaldehyde (D,I), pentanal (E,I), hexanal (F,I) | –
CC(C)C=O [isobutylaldehyde] | CaSR was activated by propionaldehyde (A,I), butanal (B,I), isobutylaldehyde (C,I) | –
